Results reported in patent US20140039008A1, “METHODS FOR THE ADMINISTRATION OF ILOPERIDONE” (VANDA PHARMACEUTICALS, INC., priority 2004, published 2014).
Values joined by “and” are separate entries in the source; they are usually repeats but may differ in a detail not shown here. Identical values can stand only once. Marks after values point to notes of the source that are not given here.

How the values were obtained:
patients [1] = assay: placebo-controlled Phase III studies of iloperidone, QTcF change; type: in vivo, human; conditions: for mean change in the QTcF: most recent study
Protocol: Iloperidone is a benzisoxazole-piperidinyl derivative, currently in development for the treatment of CNS disorders. […] At lower doses of iloperidone (4 mg-16 mg) QTcF prolongation was minimal (0.1-5 msec). In the most recent study, a greater prolongation was observed when higher doses of iloperidone (20-24 mg/day) were studied. The mean change in the QTcF at doses 20-24 mg/day was 8.5 msec, and 4.6 msec in the 12-16 mg/day dose range in this study.

patients [2] = assay: Example 1: QTc change from baseline after iloperidone by CYP2D6 genotype or metabolite ratio; type: in vivo, human; conditions: for QTc change at Period 2: after CYP2D6 inhibitor
Description: The research leading to the present invention was designed to examine the effect of different doses of iloperidone relative to the effect of ziprasidone and quetiapine on QTc duration under carefully controlled conditions. To further evaluate the possible relationship between exposure to iloperidone and the comparators to QTc duration, reassessment after pharmacological inhibition of the principle metabolic pathways for each drug, under steady-state conditions, was also planned.
The addition of metabolic inhibitors in this study therefore allowed for an evaluation of the effect of increasing blood-concentration of iloperidone and/or its metabolites on QT duration. More specifically, this study allowed for an evaluation of the effect of iloperidone on QTc before and after the addition of the CYP2D6 inhibitor, paroxetine, as well as before and after the addition of the CYP3A4 inhibitor, ketoconazole.
The 128 individuals that participated were a good representation of the total sample of 165 individuals that participated in the trial. 22 of 29 total were from the iloperidone 8 mg bid group, 30 of 34 were from the iloperidone 12 mg bid group, 22 of 31 from the 24 mg qd group, 3 of 5 of the risperidone group, 28 of 33 of the ziprazidone group, and 23 of 33 of the quetiapine group.
In order to understand whether the difference in concentration of P88 at Period 1 Tmax was relevant to the increases in QTc after the addition of the inhibitors, the observed mean of P88 for the CYP2D6G1846A AG group was used to divide all individuals into two classes. The first includes individuals with P88 concentrations at Period 3, after the addition of both inhibitors, of equal to or less than 34 ng/mL and the second class includes individuals with P88 concentration greater than 34 ng/mL. The two classes were then compared in regards to the QTc change from baseline at Period 3. Using an ANOVA statistic for the first class […] (n=55) the QTc mean change from baseline in Period 3 was 22.7 msec and that for P88≦34 (n=12) the mean QTc for the same period was 7.7 msec.
While the results for some groups are not statistically significant, they do indicate a trend supporting the hypothesis that QTc prolongation is correlated to P88/P95 ratio. Similar results were obtained when cutoff ratios of 3.0 and 4.0 were analyzed, providing further support to the hypothesis that the extent of QTc prolongation a patient may experience after treatment can be predicted by measuring P88 and P95 blood levels.
Similar results were observed when considering QTc correlation to the (iloperidone+P88)/P95 ratio. […] While the results for some groups are not statistically significant, they do indicate a trend supporting the hypothesis that QTc prolongation is correlated to (iloperidone+P88)/P95 ratio. Indeed, when cutoff ratios of 3 and higher were analyzed, similar results were obtained providing further support to the hypothesis that the extent of QTc prolongation a patient may experience after treatment can be predicted by measuring iloperidone, P88 and P95 blood levels.

patients [3] = assay: Example 2: QTcF change from baseline in iloperidone-treated patients; type: in vivo, human
Description: From the 300 iloperidone-treated patients initially genotyped for the CYP2D6*4 and * 10 variants (VP-VYV-683-3101), 222 remaining DNA samples were used for this extended pharmacogenomic analysis. One patient was excluded from the analysis due to inconsistent results for the CYP2D6 allele *4 generated by Quest Diagnostics Central Laboratory (Collegeville, Pa.) and Cogenics (Morrisville, N.C.). Pharmacokinetic data of the (iloperidone+P88)/P95 ratio was available for 168 of these patients. QT measurement at Day 14 and 28 was available for 169 and 146 patients respectively.
Analyses were performed on observed case data using an ANCOVA model with the baseline value as a covariate for the change from baseline in QTc (Fridericia formula) and using an ANOVA model for iloperidone blood exposure at Day 14 and Day 28. Linkage disequilibrium analysis was performed using Haploview v4.0 (Barrett et al, 2005).

[4] = in vivo
[5] = in vivo; remark: listed apart in the source

increase of the area under the curve (AUC) [4]: 131% | increase in the concentrations [5]: 38-58%
SMILES: COc1cc(C(C)=O)ccc1OCCCN1CCC(c2noc3cc(F)ccc23)CC1 [iloperidone, 1-[4-[3-[4-(6-fluoro-1,2-benzisoxazol-3-yl)-1-piperidinyl]propoxy]-3-methoxyphenyl]ethanone]
mean change in the QTcF (patients [1]; 12-16 mg/day dose range): 4.6 ms | mean change in the QTcF (patients [1]; 20-24 mg/day): 8.5 ms | QTcF prolongation (patients [1]; lower doses 4 mg-16 mg): 0.1 to 5 ms | LSMean QTc change from Baseline 8 mg bid (patients [2]; (ILO + P88)/P95 ratio <3): 7.2 (n = 23) | LSMean QTc change from Baseline 12 mg bid (patients [2]; (ILO + P88)/P95 ratio <3): 8.7 (n = 31) | LSMean QTc change from Baseline 8 + 12 mg bid (patients [2]; (ILO + P88)/P95 ratio <3): 8.3 (n = 54) | LSMean QTc change from Baseline 24 qd (patients [2]; (ILO + P88)/P95 ratio <3): 14.4 (n = 24) | LSMean QTc change from Baseline All Treatment Groups (patients [2]; (ILO + P88)/P95 ratio <3): 10.424 (n = 78) | LSMean QTc change from Baseline 8 mg bid (patients [2]; (ILO + P88)/P95 ratio >3): 21.3 (n = 5) | LSMean QTc change from Baseline 12 mg bid (patients [2]; (ILO + P88)/P95 ratio >3): 15.2 (n = 3) | LSMean QTc change from Baseline 8 + 12 mg bid (patients [2]; (ILO + P88)/P95 ratio >3): 17.3 (n = 8) | LSMean QTc change from Baseline 24 qd (patients [2]; (ILO + P88)/P95 ratio >3): 30.5 (n = 5) | LSMean QTc change from Baseline All Treatment Groups (patients [2]; (ILO + P88)/P95 ratio >3): 20.031 (n = 13) | QTc change at Period 1 (patients [2]; CYP2D6C100T CC, 8 mg bid): 7.8 (17) | QTc change at Period 2 (patients [2]; CYP2D6C100T CC, 8 mg bid): 11.7 (16) | QTc change at Period 1 (patients [2]; CYP2D6C100T CC, 12 mg bid): 11.8 (23) | QTc change at Period 2 (patients [2]; CYP2D6C100T CC, 12 mg bid): 14.5 (21) | QTc change at Period 1 (patients [2]; CYP2D6C100T CC, 24 mg qd): 9.5 (14) | QTc change at Period 2 (patients [2]; CYP2D6C100T CC, 24 mg qd): 16.4 (15) | QTc change at Period 1 (patients [2]; CYP2D6C100T CT, 8 mg bid): 2.9 (2) | QTc change at Period 2 (patients [2]; CYP2D6C100T CT, 8 mg bid): 12.5 (2) | QTc change at Period 1 (patients [2]; CYP2D6C100T CT, 12 mg bid): 5.8 (6) | QTc change at Period 2 (patients [2]; CYP2D6C100T CT, 12 mg bid): 8.7 (6) | QTc change at Period 1 (patients [2]; CYP2D6C100T CT, 24 mg qd): 19.0 (5) | QTc change at Period 2 (patients [2]; CYP2D6C100T CT, 24 mg qd): 20.6 (5) | QTc change at Period 1 (patients [2]; CYP2D6C100T TT, 8 mg bid): −8.4 (1) | QTc change at Period 2 (patients [2]; CYP2D6C100T TT, 8 mg bid): −0.7 (1) | QTc change at Period 1 (patients [2]; CYP2D6C100T TT, 12 mg bid): 17.7 (1) | QTc change at Period 2 (patients [2]; CYP2D6C100T TT, 12 mg bid): 25.0 (1) | QTc change at Period 1 (patients [2]; CYP2D6C100T TT, 24 mg qd): 38.4 (1) | QTc change at Period 2 (patients [2]; CYP2D6C100T TT, 24 mg qd): 28.4 (1) | QTc change at Period 1 (patients [2]; CYP2D6G1846A AA, 12 mg bid): 17.7 (1)^a | QTc change at Period 2 (patients [2]; CYP2D6G1846A AA, 12 mg bid): 25.0 (1) | QTc change at Period 1 (patients [2]; CYP2D6G1846A AA, 24 mg qd): 38.4 (1) | QTc change at Period 2 (patients [2]; CYP2D6G1846A AA, 24 mg qd): 28.4 (1) | QTc change at Period 1 (patients [2]; CYP2D6G1846A AG, 8 mg bid): −0.8 (3) | QTc change at Period 2 (patients [2]; CYP2D6G1846A AG, 8 mg bid): 8.1 (3) | QTc change at Period 1 (patients [2]; CYP2D6G1846A AG, 12 mg bid): 5.8 (6) | QTc change at Period 2 (patients [2]; CYP2D6G1846A AG, 12 mg bid): 8.7 (6) | QTc change at Period 1 (patients [2]; CYP2D6G1846A AG, 24 mg qd): 19.0 (5) | QTc change at Period 2 (patients [2]; CYP2D6G1846A AG, 24 mg qd): 20.6 (5) | QTc change at Period 1 (patients [2]; CYP2D6G1846A GG, 8 mg bid): 7.8 (17) | QTc change at Period 2 (patients [2]; CYP2D6G1846A GG, 8 mg bid): 11.7 (18) | QTc change at Period 1 (patients [2]; CYP2D6G1846A GG, 12 mg bid): 11.8 (23) | QTc change at Period 2 (patients [2]; CYP2D6G1846A GG, 12 mg bid): 14.5 (21) | QTc change at Period 1 (patients [2]; CYP2D6G1846A GG, 24 mg qd): 14.0 (14) | QTc change at Period 2 (patients [2]; CYP2D6G1846A GG, 24 mg qd): 16.4 (15) | LSMean QTc change from Baseline 8 mg bid (patients [2]; P88/P95 ratio <2): 7.2 (n = 23) | LSMean QTc change from Baseline 12 mg bid (patients [2]; P88/P95 ratio <2): 8.7 (n = 31) | LSMean QTc change from Baseline 8 + 12 mg bid (patients [2]; P88/P95 ratio <2): 8.3 (n = 54) | LSMean QTc change from Baseline 24 qd (patients [2]; P88/P95 ratio <2): 13.9 (n = 24) | LSMean QTc change from Baseline All Treatment Groups (patients [2]; P88/P95 ratio <2): 10.244 (n = 78) | LSMean QTc change from Baseline 8 mg bid (patients [2]; P88/P95 ratio >2): 21.3 (n = 5) | LSMean QTc change from Baseline 12 mg bid (patients [2]; P88/P95 ratio >2): 17.4 (n = 3) | LSMean QTc change from Baseline 8 + 12 mg bid (patients [2]; P88/P95 ratio >2): 18.3 (n = 8) | LSMean QTc change from Baseline 24 qd (patients [2]; P88/P95 ratio >2): 29.4 (n = 5) | LSMean QTc change from Baseline All Treatment Groups (patients [2]; P88/P95 ratio >2): 21.111 (n = 13) | QTc mean change from baseline in Period 3 (patients [2]; individuals with P88>34 ng/mL at Period 3, after addition of both inhibitors): 22.7 ms | QTc mean change from baseline in Period 3 (patients [2]; individuals with P88≦34 ng/mL at Period 3, after addition of both inhibitors): 7.7 ms | QTcF change, LS Squares Mean QTcF change from baseline (patients [3]; Day 14, 1 or 2 non-functional CYP2D6 alleles): 16.3 msec and 16.3 (N = 59) msec | QTcF change, LS Squares Mean QTcF change from baseline (patients [3]; Day 14, 2 functional CYP2D6 alleles): 9.7 msec and 9.7 (N = 110) msec | QTcF change, LS Squares Mean QTcF change from baseline (patients [3]; Day 14, (iloperidone+P88)/P95 ratio >1): 16.0 msec and 16.0 (N = 99) msec | QTcF change, LS Squares Mean QTcF change from baseline (patients [3]; Day 14, (iloperidone+P88)/P95 ratio ≦1): 7.9 msec and 7.9 (N = 127) msec | QTcF change, LS Squares Mean QTcF change from baseline (patients [3]; Day 28, 1 or 2 non-functional CYP2D6 alleles): 11.4 msec and 11.4 (N = 56) msec | QTcF change, LS Squares Mean QTcF change from baseline (patients [3]; Day 28, 2 functional CYP2D6 alleles): 4.4 msec and 4.4 (N = 90) msec | QTcF change, LS Squares Mean QTcF change from baseline (patients [3]; Day 28, (iloperidone+P88)/P95 ratio >1): 10.1 msec and 10.1 (N = 79) msec | QTcF change, LS Squares Mean QTcF change from baseline (patients [3]; Day 28, (iloperidone+P88)/P95 ratio ≦1): 4.8 msec and 4.8 (N = 119) msec
